Columns and labels:
blackgrass = assay: Test C postemergence herbicide test; assay type: in vivo, Alopecurus myosuroides; conditions: for Blackgrass plant response rating: 500 g ai/ha
Method: At the same time, plants selected from these crop and weed species and also winter barley (Hordeum vulgare L.), blackgrass (Alopecurus myosuroides Huds.), canarygrass (Phalaris minor Retz.), chickweed (Stellaria media (L.) Vill.), downy bromegrass (Bromus tectorum L.), green foxtail (Setaria viridis (L.) Beauv.), Italian ryegrass (Lolium multiflorum Lam.), wheat (Triticum aestivum L.), wild oat (Avenafatua L.) and windgrass (Apera spica-venti (L.) Beauv.) were treated with postemergence applications of some of the test chemicals formulated in the same manner. Plants ranged in height from 2 to 18 cm (1- to 4-leaf stage) for postemergence treatments. Plant species in the flooded paddy test consisted of rice (Oryza sativa), smallflower umbrella sedge (Cyperus difformis L.), ducksalad (Heteranthera limosa (Sw.) Willd.) and barnyardgrass (Echinochloa crus-galli (L.) Beauv.) grown to the 2-leaf stage for testing. Treated plants and controls were maintained in a greenhouse for 12 to 14 days, after which time all species were compared to controls and visually evaluated. Plant response ratings, summarized in Table C, are based on a scale of 0 to 100 where 0 is no effect and 100 is complete control. A dash (-) response means no test result.

bipinnate beggarticks = assay: Test E pre-/postemergence herbicide test; assay type: in vivo, Bidens bipinnata; conditions: Preemergence
Description: (§1) Seeds of plant species selected from bipinnate beggarticks (Bidens bipinnata L.), hairy beggarticks (Bidens radiata Thuill.), bermudagrass (Cynodon dactylon (L.) Pers.), Surinam grass (Urochloa decumbens (Staph) R. D. Webster, previously named Brachiaria decumbens Stapf), large crabgrass (Digitaria sanguinalis (L.) Scop.), green foxtail (Setaria viridis (L.) P. Beauv.), goosegrass (Eleusine indica (L.) Gaertn.), johnsongrass (Sorghum halepense (L.) Pers.), kochia (Kochia scoparia (L.) Schrad.), pitted morningglory (Ipomoea lacunosa L.), purple nutsedge (Cyperus rotundus L.), common ragweed (Ambrosia elatior L.), mustard (Brassica nigra (L.) W. D. J. Koch), guineagrass (Panicum maximum Jacq.), dallisgrass (Paspalum dilatatum Poir.), barnyardgrass (Echinochloa crus-galli (L). P. Beauv.), southern sandbur (Cenchrus echinatus L.), common sowthistle (Sonchus oleraceous L.), prickly sida (Sida spinosa L.), Italian ryegrass (Lolium multiflorum Lam.), common purslane (Portulaca oleracea L.), broadleaf signalgrass (Brachiaria platyphylla (Griseb.) Nash), common groundsel (Senecio vulgaris L.), common chickweed (Stellaria media (L.) Vill/Cyr.), tropical spiderwort (Commelina benghalensis L.), annual bluegrass (Poa annua L.), downy bromegrass (Bromus tectorum L.), itchgrass (Rottboellia cochinchinensis (L.) L.f.), quackgrass (Elytrigia repens (L.) Nevski), Canada horseweed (Erigeron Canadensis L.), field bindweed (Convolvulus arvensis L.), spotted spurge (Euphorbia maculata L.), common mallow (Malva sylvestris (=s silvestris) L.), and Russian thistle (Salsola kali L. ssp. Ruthenica (Iljin) Soo) were planted and treated preemergence with test chemicals formulated in a non-phytotoxic solvent mixture which included a surfactant.
(§2) At the same time, plants selected from these weed species were treated with postemergence applications of some of the test chemicals formulated in the same manner. Plants ranged in height from 2 to 18 cm (1- to 4-leaf stage) for postemergence treatments. Treated plants and controls were maintained in a greenhouse for 12 to 14 days, after which time all species were compared to controls and visually evaluated. Plant response ratings, summarized in Table E, are based on a scale of 0 to 100 where 0 is no effect and 100 is complete control. A dash (-) response means no test result.

large crabgrass = assay: Test E pre-/postemergence herbicide test; assay type: in vivo, Digitaria sanguinalis; conditions: Preemergence
Description: as §1, §2

common ragweed = assay: Test E pre-/postemergence herbicide test; assay type: in vivo, Ambrosia elatior; conditions: Preemergence
Description: as §1, §2

barnyardgrass = assay: Test E pre-/postemergence herbicide test; assay type: in vivo, Echinochloa crus-galli; conditions: Preemergence
Description: as §1, §2

prickly sida = assay: Test E pre-/postemergence herbicide test; assay type: in vivo, Sida spinosa; conditions: Preemergence
Description: as §1, §2

common chickweed = assay: Test E pre-/postemergence herbicide test; assay type: in vivo, Stellaria media; conditions: Preemergence
Description: as §1, §2

itchgrass = assay: Test E pre-/postemergence herbicide test; assay type: in vivo, Rottboellia cochinchinensis; conditions: Preemergence
Description: as §1, §2

quackgrass = assay: Test E pre-/postemergence herbicide test; assay type: in vivo, Elytrigia repens; conditions: Preemergence
Description: as §1, §2

[1] = Postemergence, 250 g ai/ha, scale 0 to 100, 0 no effect, 100 complete control
[2] = postemergence, 125 g ai/ha, scale 0 to 100
[3] = postemergence, 62 g ai/ha, scale 0 to 100
[4] = postemergence, 31 g ai/ha, scale 0 to 100
[5] = 250 g ai/ha, scale 0 (no effect) to 100 (complete control)
[6] = 500 g ai/ha, scale 0 (no effect) to 100 (complete control)

SMILES	Blackgrass plant response rating (blackgrass; Postemergence, scale 0 to 100)	Plant response rating, Blackgrass (blackgrass; [1])	Plant response rating, Blackgrass (blackgrass; [2])	Plant response rating, Blackgrass (blackgrass; [3])	Plant response rating, Blackgrass (blackgrass; [4])	Plant response rating, Beggarticks, Bip. (bipinnate beggarticks; 62 g ai/ha, scale 0 to 100)	Plant response rating, Beggarticks, Bip. (bipinnate beggarticks; [5])	Plant response rating, Crabgrass, Large (large crabgrass; 62 g ai/ha, scale 0 to 100)	Plant response rating, Crabgrass, Large (large crabgrass; 125 g ai/ha, scale 0 to 100)	Plant response rating, Crabgrass, Large (large crabgrass; [5])	Plant response rating, Crabgrass, Large (large crabgrass; [6])	Plant response rating, Ragweed (common ragweed; 62 g ai/ha, scale 0 to 100)	Plant response rating, Ragweed (common ragweed; 125 g ai/ha, scale 0 to 100)	Plant response rating, Ragweed (common ragweed; [5])	Plant response rating, Ragweed (common ragweed; [6])	Plant response rating, Barnyardgrass (barnyardgrass; 62 g ai/ha, scale 0 to 100)	Plant response rating, Barnyardgrass (barnyardgrass; 125 g ai/ha, scale 0 to 100)	Plant response rating, Barnyardgrass (barnyardgrass; [5])	Plant response rating, Barnyardgrass (barnyardgrass; [6])	Plant response rating, Prickly Sida (prickly sida; 62 g ai/ha, scale 0 to 100)	also measured
CCn1nc(C(C)(C)C)cc1C(=O)Nc1cccc(OC(F)F)c1 [Compound 332]	70	100	70	60																	
CCn1nc(C(C)(C)C)cc1C(=O)Nc1cc(C(=S)N(C)C)ccn1 [Compound 334]		95	95	90	75																
CCNC(=O)c1ccc(F)c(NC(=O)c2c3c(nn2CC)C(C)(C)CC3)c1 [Compound 353]	70	60	20	0																	
CCOC(=O)c1cccc(NC(=O)c2nn(C(C)(C)CC)nc2CC)c1 [Compound 375]		55	45	35	30																
CCc1nn(C(C)(C)C)nc1C(=O)Nc1cccc(C(=O)N(C)CC)c1 [Compound 384]		45	45	45	45	10	100	90	100	100	100	0	10	40	40	40	80	85	100	60	Plant response rating, Prickly Sida (prickly sida; [5]): 60; Plant response rating, Prickly Sida (prickly sida; [6]): 95; Plant response rating, Chickweed (common chickweed; 62 g ai/ha, scale 0 to 100): 75; Plant response rating, Chickweed (common chickweed; 125 g ai/ha, scale 0 to 100): 95; Plant response rating, Chickweed (common chickweed; [5]): 95; Plant response rating, Chickweed (common chickweed; [6]): 100; Plant response rating, Itchgrass (itchgrass; 62 g ai/ha, scale 0 to 100): 40; Plant response rating, Itchgrass (itchgrass; 125 g ai/ha, scale 0 to 100): 60; Plant response rating, Itchgrass (itchgrass; [5]): 70; Plant response rating, Itchgrass (itchgrass; [6]): 85; Plant response rating, Quackgrass (quackgrass; 62 g ai/ha, scale 0 to 100): 50; Plant response rating, Quackgrass (quackgrass; 125 g ai/ha, scale 0 to 100): 70; Plant response rating, Quackgrass (quackgrass; [5]): 85; Plant response rating, Quackgrass (quackgrass; [6]): 85
Cc1nn(C(C)(C)C)nc1C(=O)Nc1cccc(C(=O)N2CC=CC2)c1 [Compound 393]		65	60	60	55	30	100	10	80	95	100	0	10	20	80	0	60	80	80	30	Plant response rating, Beggarticks, Bip. (bipinnate beggarticks; 125 g ai/ha, scale 0 to 100): 100; Plant response rating, Beggarticks, Bip. (bipinnate beggarticks; [6]): 100; Plant response rating, Prickly Sida (prickly sida; 125 g ai/ha, scale 0 to 100): 70; Plant response rating, Prickly Sida (prickly sida; [5]): 75; Plant response rating, Prickly Sida (prickly sida; [6]): 100; Plant response rating, Chickweed (common chickweed; 125 g ai/ha, scale 0 to 100): 60; Plant response rating, Chickweed (common chickweed; [5]): 100; Plant response rating, Chickweed (common chickweed; [6]): 100; Plant response rating, Itchgrass (itchgrass; 62 g ai/ha, scale 0 to 100): 0; Plant response rating, Itchgrass (itchgrass; 125 g ai/ha, scale 0 to 100): 10; Plant response rating, Itchgrass (itchgrass; [5]): 30; Plant response rating, Itchgrass (itchgrass; [6]): 60; Plant response rating, Quackgrass (quackgrass; 62 g ai/ha, scale 0 to 100): 50; Plant response rating, Quackgrass (quackgrass; 125 g ai/ha, scale 0 to 100): 50; Plant response rating, Quackgrass (quackgrass; [5]): 60; Plant response rating, Quackgrass (quackgrass; [6]): 60
CCc1nn(C(C)(C)C)nc1C(=O)Nc1cccc(C(=S)N(C)C)c1 [Compound 395]						40	100	80	100	100	100	10	20	60	60	50	60	95	95	60	Plant response rating, Beggarticks, Bip. (bipinnate beggarticks; 125 g ai/ha, scale 0 to 100): 100; Plant response rating, Beggarticks, Bip. (bipinnate beggarticks; [6]): 100; Plant response rating, Prickly Sida (prickly sida; 125 g ai/ha, scale 0 to 100): 95; Plant response rating, Prickly Sida (prickly sida; [5]): 95; Plant response rating, Prickly Sida (prickly sida; [6]): 95; Plant response rating, Chickweed (common chickweed; 125 g ai/ha, scale 0 to 100): 90; Plant response rating, Chickweed (common chickweed; [5]): 100; Plant response rating, Chickweed (common chickweed; [6]): 100; Plant response rating, Itchgrass (itchgrass; 62 g ai/ha, scale 0 to 100): 20; Plant response rating, Itchgrass (itchgrass; 125 g ai/ha, scale 0 to 100): 60; Plant response rating, Itchgrass (itchgrass; [5]): 60; Plant response rating, Itchgrass (itchgrass; [6]): 80; Plant response rating, Quackgrass (quackgrass; 62 g ai/ha, scale 0 to 100): 60; Plant response rating, Quackgrass (quackgrass; 125 g ai/ha, scale 0 to 100): 80; Plant response rating, Quackgrass (quackgrass; [5]): 85; Plant response rating, Quackgrass (quackgrass; [6]): 90
C=CCNC(=O)c1cccc(NC(=O)c2nn(C(C)(C)C)nc2CC)c1 [Compound 414]	60	45	40	40																	
